Results on five compounds are retold here after patent publication US6015805A, “17β-nitro-11β-arylisteroids and their derivatives having agonist or antagonist hormonal properties” (Research Triangle Research North Carolina, priority 1999, dated 2000).

In assay [1] the target is T1, glucocorticoid receptor (rGR) (Oryctolagus cuniculus, UniProt P59667).
T1 construct: the source of the glucocorticoid receptor was the thymus of the estrogen-primed immature female rabbit; from tissue; host or cells: thymus of the estrogen-primed immature female rabbit
T1 sequence (P59667 1-772): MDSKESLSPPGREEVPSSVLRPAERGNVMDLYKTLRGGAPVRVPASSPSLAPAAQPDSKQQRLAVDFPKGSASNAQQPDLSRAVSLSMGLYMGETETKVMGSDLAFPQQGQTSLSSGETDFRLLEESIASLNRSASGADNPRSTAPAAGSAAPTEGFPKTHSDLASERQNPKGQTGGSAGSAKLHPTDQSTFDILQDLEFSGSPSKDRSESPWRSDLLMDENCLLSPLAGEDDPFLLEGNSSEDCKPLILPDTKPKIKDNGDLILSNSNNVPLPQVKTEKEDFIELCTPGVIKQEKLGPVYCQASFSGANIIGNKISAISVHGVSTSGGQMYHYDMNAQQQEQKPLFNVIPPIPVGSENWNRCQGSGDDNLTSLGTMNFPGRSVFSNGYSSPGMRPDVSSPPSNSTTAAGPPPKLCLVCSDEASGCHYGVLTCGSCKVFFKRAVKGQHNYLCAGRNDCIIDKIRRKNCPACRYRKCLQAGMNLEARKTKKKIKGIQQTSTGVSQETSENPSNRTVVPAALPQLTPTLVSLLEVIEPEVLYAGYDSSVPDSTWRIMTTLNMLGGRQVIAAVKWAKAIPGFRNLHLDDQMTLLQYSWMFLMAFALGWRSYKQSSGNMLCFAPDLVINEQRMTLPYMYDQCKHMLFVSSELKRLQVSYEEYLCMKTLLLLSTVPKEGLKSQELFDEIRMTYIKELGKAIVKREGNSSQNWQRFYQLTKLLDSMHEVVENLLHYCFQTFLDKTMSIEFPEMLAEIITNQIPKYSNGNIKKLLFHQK
In words: Receptor binding (rabbit), glucocorticoid receptor. As to conditions: relative to dexamethasone = 100. The procedure: (§1) The affinity of the compounds for hormone receptors for progestins and glucocorticoids from rabbits was determined by standard procedures similar to those that have been described in C. E. Cook, et al., Human Reproduction, Volume 9, supplement 1, pp. 32-39 (1994). However, the source of the glucocorticoid receptor was the thymus of the estrogen-primed immature female rabbit. The affinity of the compounds for the human progesterone hormone receptor was determined by standard procedures similar to those that have been described in Horwitz, et al., Cell, 28: 633-42 (1982) and Mockus, et al., Endocrinology, 110: 1564-71 (1982). The receptor was obtained in cytosol from human T-47D breast cells and [^3 H]-R5020 was used as the radioligand. T47D cells (1 billion/mL) were homogenized in TEDG buffer (10 mM Tris, 1.5 mM EDTA, 1 mM dithiothreitol, 1 mM sodium molybdate, and 10% glycerol) using a Dounce pestle A, and the homogenate was centrifuged at 34,000×g for 1 hour. The supernatant was stored at -80° C. An aliquot of receptor preparation was combined with test compound, 0.4 nM [^3 H]-R5020, and TEDG buffer to a final volume of 150 ,μL and incubated for 4 hours at 4° C. in microtiter plates. At the end of incubation 40 μL 40% polyethylene glycol and 15 μL 1% human gamma globulin was added to the incubate and the contents of each well were harvested onto double thick B filter mats (Wallac LKB) using a TomTec harvester. A film of Meltilux scintillant wax was applied to the dried filter mats and the mats were counted in a scintillation counter to determine inhibition of [^3 H]-R5020 binding. Data are expressed as lC50 values, i.e., the concentration of compound that inhibits radioligand binding by 50%.

The target in assay [2] is T2, human progesterone hormone receptor (hPR) (Homo sapiens, UniProt P06401).
T2 construct: The receptor was obtained in cytosol from human T-47D breast cells; endogenous in cells; host or cells: T-47D human breast cells (cytosol)
T2 sequence (P06401 1-933): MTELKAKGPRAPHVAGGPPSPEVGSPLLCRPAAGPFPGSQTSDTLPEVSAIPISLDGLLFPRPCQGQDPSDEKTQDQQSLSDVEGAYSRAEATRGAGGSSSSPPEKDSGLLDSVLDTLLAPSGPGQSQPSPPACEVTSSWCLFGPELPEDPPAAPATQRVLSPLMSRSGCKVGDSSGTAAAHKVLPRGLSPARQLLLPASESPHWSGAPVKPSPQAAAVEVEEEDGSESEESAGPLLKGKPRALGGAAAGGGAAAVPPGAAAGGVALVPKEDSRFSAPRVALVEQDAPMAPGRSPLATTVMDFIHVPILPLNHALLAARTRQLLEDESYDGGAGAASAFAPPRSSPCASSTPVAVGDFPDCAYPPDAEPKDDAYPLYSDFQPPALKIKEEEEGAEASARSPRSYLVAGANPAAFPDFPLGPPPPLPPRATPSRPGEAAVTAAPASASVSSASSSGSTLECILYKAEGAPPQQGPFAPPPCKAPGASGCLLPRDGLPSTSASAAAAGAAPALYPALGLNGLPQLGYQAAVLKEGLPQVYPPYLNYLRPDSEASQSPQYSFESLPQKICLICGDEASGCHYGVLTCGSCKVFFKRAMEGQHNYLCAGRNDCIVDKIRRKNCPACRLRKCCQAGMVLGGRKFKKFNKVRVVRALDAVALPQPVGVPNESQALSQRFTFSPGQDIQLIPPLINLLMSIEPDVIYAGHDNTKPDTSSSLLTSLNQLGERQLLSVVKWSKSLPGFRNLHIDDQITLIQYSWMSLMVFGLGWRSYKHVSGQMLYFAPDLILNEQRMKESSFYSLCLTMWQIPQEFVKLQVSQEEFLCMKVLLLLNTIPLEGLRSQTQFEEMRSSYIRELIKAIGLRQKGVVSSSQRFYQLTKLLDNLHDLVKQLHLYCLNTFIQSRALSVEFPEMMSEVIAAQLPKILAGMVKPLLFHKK
The assay can be described thus: Receptor binding (human), inhibition of [^3 H]-R5020 binding. As to conditions: cytosol from human T-47D cells; 0.4 nM [^3 H]-R5020; 4 hours at 4° C. As to the method: as §1

Assay [3] deals with human T-47D breast cells. The assay can be described thus: T47D cell proliferation, antagonist format (inhibition of R5020-mediated [^3 H]-thymidine incorporation). The class given is cell-based. As to conditions: for EC50: Homo sapiens, T47D, concentration which inhibits 0.15 nM R5020-mediated proliferation by 50%; for Cell Proliferation, Antagonist Format % inhibition: maximum % inhibition, 0.15 nM R5020. The procedure: (§2) Human T-47D breast cells grown in nutrient media were incubated with the standard progestin R5020 alone or with R5020 plus test compound and then assessed by standard procedures for proliferation using incorporation of [^3 H]-thymidine as the measurement. […] The maximum % inhibition (a measure of the efficacy of the compounds) is also given. In the agonist format of this assay the compounds were tested at concentrations ranging from 0.01 to 10 nM and the maximum % stimulation at any dose is listed in Table 3.
(In general: Dividing cells build labelled thymidine or BrdU into new DNA.)

The subject of assay [4] is human T-47D breast cells. In words: T47D cell proliferation, agonist format. The class given is cell-based. The note with it: maximum % stimulation at any dose, 0.01 to 10 nM. As to the method:
as §2

For the compound `CC(=O)c1ccc([C@H]2C[C@@]3(C)[C@@H](CC[C@]3(CCCO)[N+](=O)[O-])[C@@H]3CCC4=CC(=O)CCC4=C32)cc1` [I 4-CH3 CO H O H --(CH2)3 OH, 11β-(4-Acetylphenyl)-17α-(3-hydroxypropyl)-17β-nitroestra-4,9-dien-3-one], the “Relative Binding Affinity, rGR, Relative Affinity (Dexamethasone)” value (“Relative Binding Affinity, rGR” below) in assay [1] was determined as 3. Moreover, in assay [2], the IC50 (as a rule, the concentration at which inhibition is half-maximal) was found to be 16 nM. In the assay on human T-47D breast cells [3], the concentration giving a half-maximal response (EC50) (usually the midpoint of the concentration-response curve) was 175 nM and the “Cell Proliferation, Antagonist Format % inhibition” value turned out to be 96%. In the assay on human T-47D breast cells [4], the Emax came out at 41%.
For `CC#C[C@]1([N+](=O)[O-])CC[C@H]2[C@@H]3CCC4=CC(=O)CCC4=C3[C@@H](c3ccc(C(C)=O)cc3)C[C@@]21C` [I 4-CH3 CO H O H --CC--CH3, 11β-(4-Acetylphenyl)-17β-nitro-17α-(1-propynyl)estra-4,9-dien-3-one], in that order: 20, 0.8 nM, 3.3 nM, 90% and 35%.
In the case of `CC(=O)c1ccc([C@H]2C[C@@]3(C)[C@@H](CC[C@]3(/C=C/CO)[N+](=O)[O-])[C@@H]3CCC4=CC(=O)CCC4=C32)cc1` [I 4-CH3 CO H O H CH=CHCH2 OH, 11β-(4-acetylphenyl)-17α-(E-3-hydroxy-1-propenyl)-17β-nitroestra-4,9-dien-3-one], in assay [1], the “Relative Binding Affinity, rGR” value is given as 4. In assay [2], this compound had a 50% inhibitory concentration (IC50) of 26.1 nM. Also, in the assay on human T-47D breast cells [3], the EC50 worked out at 122 nM and the “Cell Proliferation, Antagonist Format % inhibition” value stood at 86%. In the assay with human T-47D breast cells [4], the Emax came out at 52%.
`CN(C)c1ccc([C@H]2C[C@@]3(C)[C@@H](CC[C@]3(CCCO)[N+](=O)[O-])[C@@H]3CCC4=CC(=O)CCC4=C32)cc1` [I 4-Me2 N H O H --(CH2)3 OH, 11β-[4-(N,N-Dimethylamino)phenyl]-17α-(3-hydroxypropyl)-17β-nitroestra-4,9-dien-3-one]: the “Relative Binding Affinity, rGR” value in assay [1] stood at 74. Besides, in assay [2], the IC50 was determined as 4.1 nM. In addition, in the assay on human T-47D breast cells [3], a half-maximal effect (EC50) was put at 12 nM and the “Cell Proliferation, Antagonist Format % inhibition” value is 89%. Besides, in the assay on human T-47D breast cells [4], the Emax is 33%.
Turning to `CC1=[N+]([O-])C2(CC1)CCC1C3CCC4=CC(=O)CCC4=C3C(c3ccc(N(C)C)cc3)CC12C` (stereo not drawn) [II 4-Me2 N H O H -- CH3, 3',4'-dihydro-11β-(4-(N,N-dimethylamino)phenyl)-5'-methyl-1'-oxo-spiro[estra-4,9-dien-17β,2'(2'H)-pyrrole]-3-one], the “Relative Binding Affinity, rGR” value in assay [1] was determined as 2. This compound gave an IC50 in assay [2] of 10.2 nM.
